Measured values as given in ChEMBL document CHEMBL6182905, “Fluorinated sulfonamide-flavonoid derivatives as novel Keap1-Nrf2 inhibitors: Potent induction of cytoprotective gene HO-1 in vivo” (Eur J Med Chem, 2025).
Active and inactive are the calls of the source. No cut-off for these calls is given here.

What was measured:
[1] = system: Mus musculus; assay: Anti-inflammatory activity in APAP-induced C57BL/6 mouse model of acute liver injury assessed as reduction in TNFalpha mRNA level in liver at 12.5 to 25 mg/kg, ip measured after 12 hrs by ELISA; type: functional, organism-based; conditions: dose 12.5-25 mg/kg
[2] = Toxicity in C57BL/6J mouse assessed as histopathological change in hepatic tissue at 25 mg/kg, ip by H and E staining based analysis; type: organism-based; conditions: in vivo
[3] = system: Mus musculus; assay: Anti-inflammatory activity in APAP-induced C57BL/6 mouse model of acute liver injury assessed as reduction in TNFalpha level in serum at 12.5 to 25 mg/kg, ip measured after 12 hrs by ELISA; type: functional, organism-based; conditions: dose 12.5-25 mg/kg
[4] = system: Mus musculus; assay: Anti-inflammatory activity in APAP-induced Nrf2 knockout male C57BL/6 mouse model of acute liver injury assessed as increase in F4/80 positive cells in liver at 25 mg/kg, ip preadministered with compound followed by APAP induction and measured after 12 hrs by staining based analysis; type: functional, organism-based
[5] = Elimination half life in Sprague-Dawley rat at 1 mg/kg, iv; type: ADME, organism-based; conditions: in vivo, read-out: beta t1/2 (converted)
[6] = biological target: T1, Nuclear factor erythroid 2-related factor 2 (Mus musculus) (UniProt Q60795); assay: Activation of Nrf2 in LPS-stimulated mouse AML12 cells assessed as upregulation of HO-1 protein level incubated for 16 hrs by Western blot analysis; type: cell-based; conditions: filed as activator, dose 0.5-10 µM
T1 sequence (whole entry): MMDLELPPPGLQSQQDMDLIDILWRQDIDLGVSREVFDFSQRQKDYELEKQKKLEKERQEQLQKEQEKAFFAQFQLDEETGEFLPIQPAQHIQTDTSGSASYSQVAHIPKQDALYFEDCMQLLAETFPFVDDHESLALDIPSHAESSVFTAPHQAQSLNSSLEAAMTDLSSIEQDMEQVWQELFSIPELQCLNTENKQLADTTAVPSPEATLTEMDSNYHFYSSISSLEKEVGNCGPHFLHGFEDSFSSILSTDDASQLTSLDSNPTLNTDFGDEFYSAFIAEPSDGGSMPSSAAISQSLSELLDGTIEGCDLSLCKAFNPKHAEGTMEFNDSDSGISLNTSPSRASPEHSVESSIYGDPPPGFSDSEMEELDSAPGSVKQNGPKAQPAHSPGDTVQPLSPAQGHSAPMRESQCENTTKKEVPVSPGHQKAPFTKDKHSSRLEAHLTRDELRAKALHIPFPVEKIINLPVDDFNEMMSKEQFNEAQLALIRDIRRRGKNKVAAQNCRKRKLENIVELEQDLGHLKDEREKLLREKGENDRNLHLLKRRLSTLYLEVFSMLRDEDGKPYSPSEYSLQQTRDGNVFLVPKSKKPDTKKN

[7] = system: Mus musculus; assay: Hepatoprotective activity in APAP-induced male C57BL/6 mouse model of acute liver injury assessed as reduction in AST level in liver at 12.5 to 25 mg/kg, ip measured after 12 hrs; type: functional, organism-based; conditions: dose 12.5-25 mg/kg
[8] = Tmax in Sprague-Dawley rat at 1 mg/kg, iv; type: ADME, organism-based; conditions: in vivo
[9] = Cmax in Sprague-Dawley rat at 1 mg/kg, iv; type: ADME, organism-based; conditions: in vivo
[10] = system: Mus musculus; assay: Hepatoprotective activity in APAP-induced Nrf2 knockout male C57BL/6 mouse model of acute liver injury assessed as effect on ALT level in liver at 25 mg/kg, ip preadministered with compound followed by APAP induction and measured after 12 hrs; type: functional, organism-based
[11] = system: Mus musculus; assay: In vivo induction of Nrf2 nuclear translocation in APAP-induced male C57BL/6 mouse model of acute liver injury assessed as increase in nuclear Nrf2 level at 12.5 to 25 mg/kg, ip measured after 12 hrs by Western blot analysis; type: functional, organism-based; conditions: dose 12.5-25 mg/kg
[12] = system: Mus musculus; assay: Anti-inflammatory activity in APAP-induced Nrf2 knockout male C57BL/6 mouse model of acute liver injury assessed as increase in MPO positive cells in liver at 25 mg/kg, ip preadministered with compound followed by APAP induction and measured after 12 hrs by staining based analysis; type: functional, organism-based
[13] = system: Mus musculus; assay: Hepatoprotective activity in APAP-induced male C57BL/6 mouse model of acute liver injury assessed as reduction in pathological damage in liver at 12.5 to 25 mg/kg, ip measured after 12 hrs by H and E staining based analysis; type: functional, organism-based; conditions: dose 12.5-25 mg/kg
[14] = system: Mus musculus; assay: Anti-inflammatory activity against APAP-induced male C57BL/6 mouse model of acute liver injury assessed as restoration of HO-1 protein level in liver at 12.5 to 25 mg/kg, ip measured after 12 hrs by Western blot analysis; type: functional, organism-based; conditions: dose 12.5-25 mg/kg
[15] = system: Mus musculus; assay: Hepatoprotective activity in APAP-induced male C57BL/6 mouse model of acute liver injury assessed as reduction in ALT level in liver at 12.5 to 25 mg/kg, ip measured after 12 hrs; type: functional, organism-based; conditions: dose 12.5-25 mg/kg
[16] = biological target: T1, Nuclear factor erythroid 2-related factor 2 (Mus musculus); assay: Activation of Nrf2 in LPS-stimulated mouse AML12 cells assessed as upregulation of HO-1 mRNA expression by measuring fold change at 10 uM incubated for 16 hrs relative to sulforaphane; type: cell-based; conditions: filed as activator
[17] = system: Mus musculus; assay: Anti-inflammatory activity in APAP-induced C57BL/6 mouse model of acute liver injury assessed as reduction in IL-6 mRNA level in liver at 12.5 to 25 mg/kg, ip measured after 12 hrs by ELISA; type: functional, organism-based; conditions: dose 12.5-25 mg/kg
[18] = system: Mus musculus; assay: Anti-inflammatory activity in APAP-induced C57BL/6 mouse model of acute liver injury assessed as reduction in macrophage aggregation in liver at 12.5 to 25 mg/kg, ip measured after 12 hrs by F4/80 staining based analysis; type: functional, organism-based; conditions: dose 12.5-25 mg/kg
[19] = AUC (0 to t) last in Sprague-Dawley rat at 10 mg/kg, po; type: ADME, organism-based; conditions: in vivo
[20] = system: Mus musculus; assay: Anti-inflammatory activity against APAP-induced male C57BL/6 mouse model of acute liver injury assessed as upregulation of HO-1 mRNA level in liver administered intraperitoneally and measured after 12 hrs by RT-qPCR analysis; type: functional, organism-based; conditions: dose 12.5-25 mg/kg, route ip
[21] = Drug concentration in liver of APAP-induced acute liver injury male C57BL/6 mouse model at 12.5 mg/kg, ip pre-administered with compound for 1 hr followed by APAP induction and measured after 12 hrs by Mass spectrometric analysis; type: ADME, organism-based; conditions: read-out: Ct
[22] = AUC (0 to t) last in Sprague-Dawley rat at 1 mg/kg, iv; type: ADME, organism-based; conditions: in vivo
[23] = system: Mus musculus; assay: In vivo inhibition of Keap1/Nrf2 protein-protein interaction in APAP-induced male C57BL/6 mouse model of acute liver injury administered intraperitoneally and measured after 12 hrs by co-immunoprecipitation analysis; type: functional, organism-based; conditions: dose 12.5-25 mg/kg, route ip
[24] = biological target: T1, Nuclear factor erythroid 2-related factor 2 (Mus musculus); assay: Activation of Nrf2 in LPS-stimulated mouse AML12 cells assessed as upregulation of Nrf2 protein level incubated for 16 hrs by Western blot analysis; type: cell-based; conditions: filed as activator, dose 0.5-10 µM
[25] = system: Mus musculus; assay: Hepatoprotective activity in APAP-induced male C57BL/6 mouse model of acute liver injury assessed as reduction in cell apoptosis in liver at 12.5 to 25 mg/kg, ip measured after 12 hrs by TUNEL assay; type: functional, organism-based; conditions: dose 12.5-25 mg/kg
[26] = Cmax in Sprague-Dawley rat at 10 mg/kg, po; type: ADME, organism-based; conditions: in vivo
[27] = biological target: T1, Nuclear factor erythroid 2-related factor 2 (Mus musculus); assay: Activation of Nrf2 in LPS-stimulated mouse AML12 cells assessed as upregulation of GCLM mRNA expression by measuring fold change at 10 uM incubated for 16 hrs relative to sulforaphane; type: cell-based; conditions: filed as activator

half-life [5]: 5.45 h
Activity [6]: Dose-dependent-effect
Tmax [8]: 0.17 h
Cmax [9]: 1050 ng/mL
fold change (FC) [16]: 3.4
AUC(0-t) [19]: 7690 ng·h/mL
AUCt [22]: 3869 ng·h/mL
Activity [24]: Dose-dependent-effect
Cmax [26]: 1300 ng/mL
fold change (FC) [27]: 2.3
SMILES: COc1ccc(-c2cc(=O)c3ccc(NS(=O)(=O)c4ccc(F)cc4)cc3o2)cc1
Activity [1]: Active
Activity [2]: Non-toxic
Activity [3]: Active
Activity [4]: inactive
Activity [7]: Active
Activity [10]: No effect
Activity [11]: Active
Activity [12]: inactive
Activity [13]: Active
Activity [14]: Active
Activity [15]: Active
Activity [17]: Active
Activity [18]: Active
Activity [20]: Dose-dependent-effect
concentration at 13 h [21]: 175 ng/g
inhibition [23]: Dose-dependent-effect
Activity [25]: Active
